From patent US10766882B2, “1,2-naphthoquinone based derivative and method of preparing the same” (YUNGJIN PHARM. CO., LTD., priority 2013, dated 2020)

Assays:
NQO1 protein = NQO1 protein (Homo sapiens, UniProt P15559); assay: NQO1 activity measurement (cytochrome C reduction); assay type: biochemical; conditions: 5 ng NQO1 protein, 200 μM NADH, 77 μM cytochrome C, 37° C., absorbance 550 nm for 10 minutes
Experimental: An enzyme reaction solution included 25 mM Tris/HCl (pH 7.4), 0.14% bovine serum albumin, 200 μM NADH, 77 μM cytochrome C, and 5 ng of NQO1 protein. Enzymatic reaction was initiated by adding NADH and performed at 37° C. In this regard, a reaction rate was measured by observing absorbance, which was increased due to reduction of cytochrome C, at 550 nm for 10 minutes and NQO1 activity was represented as an amount of reduced cytochrome C [nmol cytochrome C reduced/min/μg protein].
Extinction coefficient for cytochrome C:21.1 mmol/L/cm=21.1 μmol/ml/cm

Cells = assay: Measurement of lactate change amount within cells; assay type: cell-based; conditions: PCA extract of cells, lactate measured from supernatant (Megazyme, K-LATE)
Experimental: Cells were treated with 400 μl of 6% PCA, and then collected and extracted. Centrifugation (13,000 rpm, 10 min) was performed. A precipitate was dried using a Speed-Vac and then a weight of dried precipitate was measured. A supernatant was neutralized using 400 μl of 1 M KOH and a final volume thereof was adjusted to 1 ml using 0.33 M KH2PO4/K2HPO4, pH 7.5. Centrifugation (13,000 rpm, 10 min) was performed and the amount of lactate was measured from a supernatant (Megazyme, K-LATE).

C57BL/6J Lep ob/ob mice = assay: Weight loss effects in obese mice (ob/ob); assay type: in vivo; conditions: Exp. Ex. 3-3, FIG. 3: 11 week-old ob/ob mice, 100 mg/kg oral, total of 6 days, vs 0.1% SLS controls
Experimental: 10 week-old C57BL/6J Lep ob/ob mice having genetic obesity characteristics available from ORIENTBIO were prepared. Two mice were raised in each polycarbonate breeding cage (200 W×260 L×130H (mm), Three-shine) in which temperature was 20 to 24° C., relative humidity was 35 to 65%, illuminance was 150 to 300 lux, night and day were 12 hours, and exhaust was performed at 10 to 15 air changes per hour. As a feed, low fat diet (11.9 kcal % fat, 5053, Labdiet) manufactured by ORIENTBIO was used. The feed was contained in a feeder and free intake was allowed. As drinking water, water, which was contained in a 250 mL polycarbonate based bottle, purified through a filter and a sterilizer was used and free intake was allowed.
The compound according to Example 1 synthesized in the present invention was orally administered to three C57BL/6J Lep ob/ob mice in amounts of 40 mg/kg, 80 mg/kg, and 120 mg/kg, respectively, once every day for two weeks. For administration, a disposable syringe fitted with a sonde for oral administration was used and 10 ml/kg of the compound was orally administered into the stomach. As controls, three C57BL/6J Lep ob/ob mice were administered 0.1% sodium lauryl sulfate (SLS) in an amount of 120 mg/kg in the same manner as described above. After administration, a time-dependent weight increase ratio, weight change, and intake amount were measured and results are illustrated in FIG. 1 below.
Weights of the experimental animals were measured immediately before administration of a test material and seven times a week from an administration initiation day to a test termination day. Increased total weights were calculated by subtracting weights measured on an experiment initiation day from weights measured one day before an experiment termination day. Food intake amounts were calculated by measuring feed supply amounts and remaining amounts twice a week from an initiation day of test material administration to a test termination day for each individual. […]
(§1) Experiments were performed under the same conditions as in Experimental Example 3-1 except that 15 week-old C57BL/6J Lep ob/ob mice having genetic obesity characteristics available from ORIENTBIO were prepared, the compounds according to Examples 5 and 6 were administered to three C57BL/6J Lep ob/ob mice in an amount of 150 mg/kg, 150 mg/kg of 0.1% SLS was administered to each of three C57BL/6J Lep ob/ob mice as controls, and experiments were performed for a total of one week. Weight increase ratios, weight change, and intake amounts depending on administration time were measured and results are illustrated in FIG. 5 below.
as §1, with “that 10” for “that 15”, “Examples 8, 9,” for “Examples 5”, “and 12” for “and 6”, “FIG. 6” for “FIG. 5”
Experiments were performed under the same conditions as in Experimental Example 3-1 except that 6 week-old C57BL/6J Lep ob/ob mice having genetic obesity characteristics available from ORIENTBIO were prepared, the compounds according to Examples 17, 18, 22, and 23 were administered to three C57BL/6J Lep ob/ob mice in an amount of 100 mg/kg, 100 mg/kg of 0.1% SLS was administered to each of three C57BL/6J Lep ob/ob mice as controls, and experiments were performed for a total of one week. Weight increase ratios, weight change, and intake amounts depending on administration time were measured and results are illustrated in FIG. 10 below. […]

Sequence of NQO1 protein (P15559 whole entry, species assumed): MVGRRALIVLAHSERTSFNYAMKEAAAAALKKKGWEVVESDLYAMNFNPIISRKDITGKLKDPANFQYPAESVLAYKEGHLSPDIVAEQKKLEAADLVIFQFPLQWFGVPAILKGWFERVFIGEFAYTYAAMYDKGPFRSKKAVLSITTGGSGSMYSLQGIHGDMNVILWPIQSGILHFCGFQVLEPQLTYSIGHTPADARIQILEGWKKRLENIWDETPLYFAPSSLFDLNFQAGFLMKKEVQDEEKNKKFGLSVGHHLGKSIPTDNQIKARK

CCc1nc2c(n1C)C(=O)C(=O)c1cc(Cl)ccc1-2 [Example 43, 7-chloro-2-ethyl-3-methyl-3H-naphtho[2,1-d]imidazole-4,5-dione]
NQO1 activity (5 μM, [nmol cytochrome C reduced/min/μg protein]) (NQO1 protein): 111.6 nmol cytochrome C reduced/min/μg protein
Lactate change amount within cells (nmol/mg cell) (Cells): 6.0 nmol/mg cell

CC(C)c1nc2c(n1Cc1ccccc1)-c1ccccc1C(=O)C2=O [Example 2, 1-benzyl-2-isopropyl-1H-naphtho[2,1-d]imidazole-4,5-dione]
NQO1 activity (5 μM, [nmol cytochrome C reduced/min/μg protein]) (NQO1 protein): 143 nmol cytochrome C reduced/min/μg protein
Lactate change amount within cells (nmol/mg cell) (Cells): 7.3 nmol/mg cell

CC(C)(C)c1nc2c([nH]1)C(=O)C(=O)c1cccnc1-2 [Example 27]
NQO1 activity (5 μM, [nmol cytochrome C reduced/min/μg protein]) (NQO1 protein): 207.4 nmol cytochrome C reduced/min/μg protein
Lactate change amount within cells (nmol/mg cell) (Cells): 9.6 nmol/mg cell

CC(C)(C)c1nc2c([nH]1)C(=O)C(=O)c1ncccc1-2 [Example 7, 2-tert-butyl-3H-imidazo[4,5-f]quinoline-4,5-dione]
NQO1 activity (5 μM, [nmol cytochrome C reduced/min/μg protein]) (NQO1 protein): 55 nmol cytochrome C reduced/min/μg protein
Lactate change amount within cells (nmol/mg cell) (Cells): 11.4 nmol/mg cell

CC(C)c1nc2c(n1C(=O)OC(C)(C)C)C(=O)C(=O)c1ccccc1-2 [Example 29]
NQO1 activity (5 μM, [nmol cytochrome C reduced/min/μg protein]) (NQO1 protein): 215.6 nmol cytochrome C reduced/min/μg protein
Lactate change amount within cells (nmol/mg cell) (Cells): 8.1 nmol/mg cell

CC(C)(C)Cc1nc2c([nH]1)C(=O)C(=O)c1ccccc1-2 [Example 15, 2-neopentyl-1H-naphtho[2,1-d]imidazole-4,5-dione]
NQO1 activity (5 μM, [nmol cytochrome C reduced/min/μg protein]) (NQO1 protein): 183.3 nmol cytochrome C reduced/min/μg protein
Lactate change amount within cells (nmol/mg cell) (Cells): 7.2 nmol/mg cell

CCc1nc2c(n1C)-c1ccc(Cl)cc1C(=O)C2=O [Example 44, 7-chloro-2-ethyl-1-methyl-1H-naphtho[2,1-d]imidazole-4,5-dione]
NQO1 activity (5 μM, [nmol cytochrome C reduced/min/μg protein]) (NQO1 protein): 43.4 nmol cytochrome C reduced/min/μg protein
Lactate change amount within cells (nmol/mg cell) (Cells): 9.5 nmol/mg cell

CC(C)c1nc2c(n1Cc1cccc(Cl)c1)C(=O)C(=O)c1ccccc1-2 [Example 34]
NQO1 activity (5 μM, [nmol cytochrome C reduced/min/μg protein]) (NQO1 protein): 153.5 nmol cytochrome C reduced/min/μg protein
Lactate change amount within cells (nmol/mg cell) (Cells): 4.9 nmol/mg cell

CCc1nc2c([nH]1)C(=O)C(=O)c1cc([N+](=O)[O-])ccc1-2 [Example 24]
NQO1 activity (5 μM, [nmol cytochrome C reduced/min/μg protein]) (NQO1 protein): 208.2 nmol cytochrome C reduced/min/μg protein
Lactate change amount within cells (nmol/mg cell) (Cells): 4.3 nmol/mg cell

CC(C)(C)OC(=O)N(Cc1nc2c([nH]1)C(=O)C(=O)c1ccccc1-2)c1ccccc1 [Example 48]
NQO1 activity (5 μM, [nmol cytochrome C reduced/min/μg protein]) (NQO1 protein): 59.8 nmol cytochrome C reduced/min/μg protein
Lactate change amount within cells (nmol/mg cell) (Cells): 5.1 nmol/mg cell

CC(C)c1nc2c([nH]1)C(=O)C(=O)c1cc([N+](=O)[O-])ccc1-2 [Example 16]
NQO1 activity (5 μM, [nmol cytochrome C reduced/min/μg protein]) (NQO1 protein): 94.0 nmol cytochrome C reduced/min/μg protein
Lactate change amount within cells (nmol/mg cell) (Cells): 5.8 nmol/mg cell

CC(C)(C)c1nc2c(n1Cc1ccccc1)C(=O)C(=O)c1cccnc1-2 [Example 46, 3-benzyl-2-tert-butyl-3H-imidazo[4,5-h]quinoline-4,5-dione]
NQO1 activity (5 μM, [nmol cytochrome C reduced/min/μg protein]) (NQO1 protein): 160.1 nmol cytochrome C reduced/min/μg protein
Lactate change amount within cells (nmol/mg cell) (Cells): 8.9 nmol/mg cell

CC(=O)Nc1ccc2c(c1)C(=O)C(=O)c1[nH]c(C(C)C)nc1-2 [Example 19]
NQO1 activity (5 μM, [nmol cytochrome C reduced/min/μg protein]) (NQO1 protein): 24.6 nmol cytochrome C reduced/min/μg protein
Lactate change amount within cells (nmol/mg cell) (Cells): 6.5 nmol/mg cell

O=C1C(=O)c2[nH]c(CNc3ccccc3)nc2-c2ccccc21 [Example 49]
NQO1 activity (5 μM, [nmol cytochrome C reduced/min/μg protein]) (NQO1 protein): 128.4 nmol cytochrome C reduced/min/μg protein
Lactate change amount within cells (nmol/mg cell) (Cells): 5.2 nmol/mg cell

CCc1nc2c(n1C)-c1ccccc1C(=O)C2=O [Example 39, 2-ethyl-1-methyl-1H-naphtho[2,1-d]imidazole-4,5-dione]
NQO1 activity (5 μM, [nmol cytochrome C reduced/min/μg protein]) (NQO1 protein): 104.7 nmol cytochrome C reduced/min/μg protein
Lactate change amount within cells (nmol/mg cell) (Cells): 8.4 nmol/mg cell

CCOC(=O)n1c(C(C)C)nc2c1C(=O)C(=O)c1ccccc1-2 [Example 37]
NQO1 activity (5 μM, [nmol cytochrome C reduced/min/μg protein]) (NQO1 protein): 215.7 nmol cytochrome C reduced/min/μg protein
Lactate change amount within cells (nmol/mg cell) (Cells): 10.3 nmol/mg cell

O=C1C(=O)c2[nH]c(COc3ccccc3)nc2-c2ccccc21 [Example 78]
NQO1 activity (5 μM, [nmol cytochrome C reduced/min/μg protein]) (NQO1 protein): 81.7 nmol cytochrome C reduced/min/μg protein
Lactate change amount within cells (nmol/mg cell) (Cells): 8.0 nmol/mg cell

CC(C)c1nc2c(n1C(=O)OCc1ccccc1)C(=O)C(=O)c1ccccc1-2 [Example 31]
NQO1 activity (5 μM, [nmol cytochrome C reduced/min/μg protein]) (NQO1 protein): 127.1 nmol cytochrome C reduced/min/μg protein
Lactate change amount within cells (nmol/mg cell) (Cells): 5.1 nmol/mg cell

CCn1c(C(C)C)nc2c1C(=O)C(=O)c1ccccc1-2 [Example 36]
NQO1 activity (5 μM, [nmol cytochrome C reduced/min/μg protein]) (NQO1 protein): 164.6 nmol cytochrome C reduced/min/μg protein
Lactate change amount within cells (nmol/mg cell) (Cells): 7.8 nmol/mg cell

COc1ccc(-c2nc3c([nH]2)C(=O)C(=O)c2ccccc2-3)cc1 [Example 10]
NQO1 activity (5 μM, [nmol cytochrome C reduced/min/μg protein]) (NQO1 protein): 103 nmol cytochrome C reduced/min/μg protein
Lactate change amount within cells (nmol/mg cell) (Cells): 9.9 nmol/mg cell

CC(C)C(=O)n1c(C(C)C)nc2c1C(=O)C(=O)c1ccccc1-2 [Example 28]
NQO1 activity (5 μM, [nmol cytochrome C reduced/min/μg protein]) (NQO1 protein): 177.2 nmol cytochrome C reduced/min/μg protein
Lactate change amount within cells (nmol/mg cell) (Cells): 6.8 nmol/mg cell

O=C1C(=O)c2nccnc2-c2ccccc21 [Example 13]
NQO1 activity (5 μM, [nmol cytochrome C reduced/min/μg protein]) (NQO1 protein): 291 nmol cytochrome C reduced/min/μg protein
intake amount (C57BL/6J Lep ob/ob mice): significantly decreased
weight increase ratio (C57BL/6J Lep ob/ob mice): significantly decreased

CCc1nc2c(n1C)-c1ccc(F)cc1C(=O)C2=O [Example 42, 2-ethyl-7-fluoro-1-methyl-1H-naphtho[2,1-d]imidazole-4,5-dione]
NQO1 activity (5 μM, [nmol cytochrome C reduced/min/μg protein]) (NQO1 protein): 57.0 nmol cytochrome C reduced/min/μg protein
Lactate change amount within cells (nmol/mg cell) (Cells): 8.9 nmol/mg cell

O=C1C(=O)c2[nH]c(Cc3ccccc3)nc2-c2ccccc21 [Example 11]
NQO1 activity (5 μM, [nmol cytochrome C reduced/min/μg protein]) (NQO1 protein): 178 nmol cytochrome C reduced/min/μg protein
Lactate change amount within cells (nmol/mg cell) (Cells): 7.2 nmol/mg cell

Cn1c(C(C)(C)C)nc2c1-c1cccnc1C(=O)C2=O [Example 14]
NQO1 activity (5 μM, [nmol cytochrome C reduced/min/μg protein]) (NQO1 protein): 179 nmol cytochrome C reduced/min/μg protein
Lactate change amount within cells (nmol/mg cell) (Cells): 12.4 nmol/mg cell
